From patent US20160102317A1, “PLANTS HAVING INCREASED TOLERANCE TO HERBICIDES” (BASF SE, priority 2013, published 2016)

Tests used:
Synechococcus HPPD = test: HPPD activity assay, tolerance index; assay type: biochemical; conditions: Table 12, normalized to reference SEQ ID NO:53
Method: (§1) HPPD produces homogentisic acid and CO2 from 4-hydroxyphenylpyruvate (4-HPP) and 02. The activity assay for HPPD is based on the analysis of homogentisic acid by reversed phase HPLC. The assay mixture can contain 150 mM potassium phosphate buffer pH 7.0, 50 mM L-ascorbic acid, 100 μM Catalase (Sigma-Aldrich), 1 μM FeSO4 and 0.2 units of purified HPPD enzyme in a total volume of 505 μl. 1 unit is defined as the amount of enzyme that is required to produce 1 nmol of HGA per minute at 20° C.
(§2) After a preincubation of 30 min the reaction is started by adding 4-HPP to a final concentration of 0.05 mM. The reaction is allowed to proceed for 45 min at room temperature. The reaction is stopped by the addition of 50 μl of 4.5 M phosphoric acid. The sample is filtered using a […] pore size PVDF filtration device.
(§3) 5 μl of the cleared sample is analyzed on an UPLC HSS T3 column (particle size 1.8 μm, dimensions 2.1×50 mm; Waters) by isocratic elution using 90% 20 mM NaH2PO4 pH 2.2, 10% methanol (v/v).
(§4) HGA is detected electrochemically at 750 mV (mode: DC; polarity: positive) and quantified by integrating peak areas (Empower software; Waters).
(§5) Inhibitors are dissolved in DMSO (dimethylsulfoxide) to a concentration of 0.5 mM. From this stock solution serial five-fold dilutions are prepared in DMSO, which are used in the assay. The respective inhibitor solution accounts for 1% of the assay volume. Thus, final inhibitor concentrations range from 5 μM to 320 μM, respectively. […] IC50 values are calculated using non-linear regression.
(§6) Using methods which are described in the above examples or well known in the art, purified, recombinant wild-type HPPD enzymes are characterized with respect to their kinetic properties and sensitivity towards HPPD inhibiting herbicides. Apparent michaelis constants (Km) and maximal reaction velocities (Vmax) are calculated by non-linear regression with the software GraphPad Prism 5 (GraphPad Software, La Jolla, USA) using a substrate inhibition model. […] Weighted means (by standard error) of Km and IC50 values are calculated from at least three independent experiments. […]

[1] = test system: Rhodococcus HPPD (Seq ID 44); test: HPPD activity assay, tolerance index; assay type: biochemical; conditions: Table 12; Rhodococcus (Seq ID 44); normalized to reference SEQ ID NO:53
Method: as §1, §2, §3, §4, §5, §6

[2] = test system: Rhodococcus HPPD (Seq ID 46); test: HPPD activity assay, tolerance index; assay type: biochemical; conditions: Table 12; Rhodococcus (Seq ID 46); normalized to reference SEQ ID NO:53
Method: as §1, §2, §3, §4, §5, §6

HPPD Seq ID 67 = test: HPPD activity assay, tolerance index; assay type: biochemical, Zea mays; conditions: Table 12, normalized to reference SEQ ID NO:53
Method: as §1, §2, §3, §4
(§7) Inhibitors are dissolved in DMSO (dimethylsulfoxide) to a concentration of 0.5 mM. From this stock solution serial five-fold dilutions are prepared in DMSO, which are used in the assay. […] IC50 values are calculated using non-linear regression. […]

HPPD Seq ID 69 = test: HPPD activity assay, tolerance index; assay type: biochemical, Zea mays; conditions: Table 12, normalized to reference SEQ ID NO:53
Method: as §1, §2, §3, §4, §7

[3] = target: T1, Arabidopsis HPPD (SEQ ID NO:53), wild-type (Arabidopsis thaliana, UniProt P93836); test: HPPD activity assay (HGA by HPLC), wild-type enzyme characterization; assay type: biochemical
T1 construct: His6 (N); made in house; host or cells: E. coli BL21 (DE3)
T1 sequence (P93836 1-445): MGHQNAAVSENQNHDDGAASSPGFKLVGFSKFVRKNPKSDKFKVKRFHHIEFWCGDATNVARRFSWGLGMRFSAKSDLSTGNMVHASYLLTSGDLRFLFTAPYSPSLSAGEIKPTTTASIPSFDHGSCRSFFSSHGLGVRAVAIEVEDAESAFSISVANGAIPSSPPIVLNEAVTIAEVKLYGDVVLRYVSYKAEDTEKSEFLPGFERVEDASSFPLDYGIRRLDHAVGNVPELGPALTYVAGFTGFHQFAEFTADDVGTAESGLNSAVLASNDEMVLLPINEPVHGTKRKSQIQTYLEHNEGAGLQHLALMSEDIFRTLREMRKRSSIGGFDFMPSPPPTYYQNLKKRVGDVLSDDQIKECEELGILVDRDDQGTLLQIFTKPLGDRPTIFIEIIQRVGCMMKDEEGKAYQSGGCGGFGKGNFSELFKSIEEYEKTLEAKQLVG
Method: as §1, §2, §3, §4
Inhibitors are dissolved in DMSO (dimethylsulfoxide) to a concentration of 0.5 mM. From this stock solution serial five-fold dilutions are prepared in DMSO, which are used in the assay. The respective inhibitor solution accounts for 1% of the assay volume. […] Activities are normalized by setting the uninhibited enzyme activity to 100%. IC50 values are calculated using non-linear regression.
Using methods which are described in the above examples or well known in the art, purified, recombinant wild-type HPPD enzymes are characterized with respect to their kinetic properties and sensitivity towards HPPD inhibiting herbicides. Apparent michaelis constants (Km) and maximal reaction velocities (Vmax) are calculated by non-linear regression with the software GraphPad Prism 5 (GraphPad Software, La Jolla, USA) using a substrate inhibition model. […] Weighted means (by standard error) of Km and IC50 values are calculated from at least three independent experiments.
Field performance of the HPPD enzyme, which is used as a herbicide tolerance trait, may depend not only on its lack of sensitivity towards HPPD inhibiting herbicides but also on its activity. To assess the potential performance of a herbicide tolerance trait a tolerance index (TI) is calculated using the following formula: […]
Easy comparison and ranking of each trait is enabled by normalizing tolerance indexes on Arabidopsis wild-type HPPD.

[4] = target: T2, Hordeum HPPD (SEQ ID: 2) F377L (Hordeum vulgare, UniProt O48604, A164G/F377L/R146V/R147D/R148G); test: HPPD activity assay, in vitro characterization of HPPD mutants; assay type: biochemical; conditions: Table 16, Hordeum wild-type = 1
T2 construct: His (N); made in house; host or cells: E. coli BL21 (DE3)
T2 sequence (O48604 whole entry R146V/R147D/R148G/A164G/F377L): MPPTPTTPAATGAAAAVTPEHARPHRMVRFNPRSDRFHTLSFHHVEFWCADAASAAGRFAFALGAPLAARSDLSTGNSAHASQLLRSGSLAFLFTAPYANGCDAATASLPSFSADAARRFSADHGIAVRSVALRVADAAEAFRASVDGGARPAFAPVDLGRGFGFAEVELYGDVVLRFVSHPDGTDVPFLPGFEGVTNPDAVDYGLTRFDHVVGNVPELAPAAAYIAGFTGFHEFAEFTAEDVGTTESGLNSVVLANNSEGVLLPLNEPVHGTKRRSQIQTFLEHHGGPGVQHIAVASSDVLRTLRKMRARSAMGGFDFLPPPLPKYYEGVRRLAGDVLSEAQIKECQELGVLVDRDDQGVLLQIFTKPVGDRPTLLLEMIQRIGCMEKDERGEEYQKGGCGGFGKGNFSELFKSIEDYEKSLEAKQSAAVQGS
Method: as §1
After a preincubation of 30 min the reaction is started by adding 4-HPP to a final concentration of 0.05 mM. The reaction is allowed to proceed for 45 min at room temperature. The reaction is stopped by the addition of 50 μl of 4.5 M phosphoric acid. […]
as §3, §4
Inhibitors are dissolved in DMSO (dimethylsulfoxide) to a concentration of 0.5 mM. […] IC50 values are calculated using non-linear regression.
Purified, mutant HPPD enzymes are obtained by the methods described above. […] Weighted means (by standard error) of Km and IC50 values are calculated from at least three independent experiments. […]

Structure (SMILES)	TI Inhibitor 1 (normalized tolerance index) (Synechococcus HPPD)	TI Inhibitor 1 (normalized tolerance index) [1]	TI Inhibitor 1 (normalized tolerance index) [2]	TI Inhibitor 1 (normalized tolerance index) (HPPD Seq ID 67)	TI Inhibitor 1 (normalized tolerance index) (HPPD Seq ID 69)	Ki [3] [nM]	TI Inhibitor 1 (normalized tolerance index) ([3]; Table 12, Arabidopsis HPPD, normalized to reference SEQ ID NO:53)	TI Inhibitor 1 (normalized tolerance index) ([3]; Table 15, Arabidopsis HPPD variant Wild-type)	TI Inhibitor 2 (normalized tolerance index) [4]
COc1no[nH]/c1=N/C(=O)c1ccc2c(c1Cl)S(=O)(=O)CCC2(C)C [Inhibitor 1, (NE)-8-chloro-N-(4-methoxy-1,2,5-oxadiazol-3-ylidene)-4,4-dimethyl-1,1-dioxo-2,3-dihydrothiochromene-7-carboxamide]	11.9	25.2	1.2	107.3	13.2	19	1	1	
Cc1c(C(=O)Nc2nnnn2C)ccc2c1C(=O)C(C)(C)CS2(=O)=O [Inhibitor 2, 3,3,5-trimethyl-N-(1-methyltetrazol-5-yl)-1,1,4-trioxo-2H-thiochromene-6-carboxamide]									4.6
